# Tests used:
# [1] = test system: BMDC; experiment: Cytokine production by LPS-stimulated BMDC (ELISA); assay type: cell-based, C57BL/6 mice; settings: LPS 50 ng/ml, 18 h; for production of TNFα, IL6 and IL10: in the presence of both PD184352 (2 μM) and BIRB0796 (0.1 μM)
# Description: DCs were generated from the bone marrow or the spleen of C57BL/6 mice as previously described. Briefly, bone marrow cells were cultured for 7 days at 37°C, 5% (v/v) CO2 in complete RPMI medium supplemented with 10 ng/ml recombinant granulocyte-macrophage colony-stimulating factor (GM-CSF; Peprotech). Spleen cells were cultured for 14 days at 37°C, 5% CO2 in complete RPMI containing 10 ng/ml GM-CSF and 1 ng/ml TGFβ (transforming growth factor-β; R&D Systems). NIH3T3 cells (European Cell Culture Collection) were cultured in DMEM (Dulbecco's modified Eagle's medium) supplemented with glutamine, penicillin, streptomycin and 10% (v/v) calf serum (Invitrogen). […] The amounts of TNFα (tumour necrosis factor α), IL6 (interleukin 6) and IL10 in the supernatant were measured using ELISA kits specific for each cytokine (TNFα, IL6; Peprotech, IL10; R&D Systems).
# [2] = test system: panel of more than 200 kinases; design: method as in PMID 22056746; settings: cited from earlier work
# [3] = test system: BMDC; experiment: FITC-dextran uptake (macropinocytosis) by BMDC; assay type: cell-based, C57BL/6 mice; settings: LPS 50 ng/ml, FITC-dextran 1 mg/ml, increasing concentrations
# Description: DCs were generated from the bone marrow or the spleen of C57BL/6 mice as previously described. Briefly, bone marrow cells were cultured for 7 days at 37°C, 5% (v/v) CO2 in complete RPMI medium supplemented with 10 ng/ml recombinant granulocyte–macrophage colony-stimulating factor (GM-CSF; Peprotech). Spleen cells were cultured for 14 days at 37°C, 5% CO2 in complete RPMI containing 10 ng/ml GM-CSF and 1 ng/ml TGFβ (transforming growth factor-β; R&D Systems). NIH3T3 cells (European Cell Culture Collection) were cultured in DMEM (Dulbecco's modified Eagle's medium) supplemented with glutamine, penicillin, streptomycin and 10% (v/v) calf serum (Invitrogen).
# FITC-dextran uptake was measured as described. […] In some experiments, cells were pre-treated with 1 μM Akt-i (Merck) for 30 min. Cells were left unstimulated or were stimulated with 50 ng/ml LPS for 20 min at 37°C followed by the addition of 1 mg/ml FITC dextran (Invitrogen) for 10 min at 37°C. Cells were washed four times at 4°C in PBS supplemented with 2% (v/v) FCS (foetal calf serum) and then stained with APC (allophycocyanin)-labelled anti-CD11c antibody (BD biosciences). FITC dextran uptake was measured on an FACS Calibur (BD biosciences).
# [4] = test system: DC; experiment: Actin cytoskeleton organisation in DC (confocal microscopy); assay type: cell-based, C57BL/6 mice; settings: 4 μM D1870 or 2 μM BIX, 1h30 at 37°C
# Description: 2 μMBIXfor1h30at37◦ C. Cells were ﬁxed in 4 % (v/v) paraformalde-hyde for 15 min, permeabilized with 0.1 % Triton for 5 min and stained with phalloidin-Alexa 555 (Invitrogen) and anti-vinculin antibody (Sigma) followed by goat anti-mouse Alexa 488 antibody (invitrogen). Cells were analysed on a Zeiss700 confocal microscope. V inculin (green) and phal-loidin (red). Error bar 10 μm. Images are representative of three inde- […]
# © 2014 The Author(s) This is an Open Access ar ticle distributed under the terms of the Creative Commons Attribution Licence (CC-BY) (http://creativecommons.org/licenses/by/3.0/)c which permits unrestricted use, distribution and reproduction in any medium, provided the original work is properly cited.
# (1 picture or pasted object on this page, not shown here)
# [5] = biological target: T1, Erk1/2 (Mus musculus, UniProt P63085); experiment: Desthiobiotin-ATP probe capture on streptavidin beads, Western blot; assay type: binding, C57BL/6 mice; settings: 10 μM inhibitor, DC lysate
# T1 construct: recovered on streptavidin beads following desthiobiotin-ATP labelling of DC lysates including Rsk2, Erk1/2 and p38; endogenous in cells; host or cells: mouse spleen-derived dendritic cells (SDC), lysate
# T1 sequence (P63085 2-358): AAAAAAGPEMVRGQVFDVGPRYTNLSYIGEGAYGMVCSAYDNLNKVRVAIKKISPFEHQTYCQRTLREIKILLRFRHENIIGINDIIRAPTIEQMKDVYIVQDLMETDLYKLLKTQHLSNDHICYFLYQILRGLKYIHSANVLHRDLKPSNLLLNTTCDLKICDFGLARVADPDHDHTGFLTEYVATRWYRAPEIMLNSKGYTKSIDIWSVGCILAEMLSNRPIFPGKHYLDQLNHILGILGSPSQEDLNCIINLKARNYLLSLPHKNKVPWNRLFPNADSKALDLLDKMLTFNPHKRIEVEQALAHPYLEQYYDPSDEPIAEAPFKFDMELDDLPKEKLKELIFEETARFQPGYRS
# Description: (§1) SDC were cultured for at least 14 days in RPMI (without arginine and lysine, custom-made by Biosera) containing 10% dialysed FCS (Hyclone) supplemented with 84 mg/l of L-arginine (Sigma) and 40 mg/l L-lysine (Sigma) for the 'light' medium or 84 mg/l of […] or ^13C10 and 40 mg/l […] (Cambridge Isotope Laboratory) for the 'heavy' medium. Equal numbers (2×10^7) of 'light' or 'heavy' labelled SDCs were incubated in RPMI containing 0.5% FCS for 3 h in 15 cm dishes. The cells were lysed in the lysis buffer provided in the kit (Pierce). […] Labelling with the desthiobiotin ATP probe, and precipitation with streptavidin beads were performed according to the manufacturer's instructions (Pierce kinase enrichment kit or ActivXTM).
# [6] = test system: p38; experiment: as above; assay type: binding, C57BL/6 mice; settings: 10 μM inhibitor, DC lysate
# Description: as §1
# [7] = test system: BMDC; experiment: Immunoblot of phosphorylated signalling proteins in stimulated BMDC; assay type: cell-based, C57BL/6 mice; settings: 30 min
# Description: BMDC (1.5×10^6 cells) were incubated in 6-well plates in RPMI supplemented with 0.3% FCS for 5 h at 37°C. […] NIH3T3 cells (2×10^4) were plated in 6-well plates for 48 h at 37°C. The cells were deprived of serum for 8 h in DMEM supplemented with 2 mg/ml BSA (Sigma) and then stimulated with 100 ng/ml EGF (epidermal growth factor; Peprotech) for 5 min at 37°C.
# Cells were washed in cold PBS, lysed on ice for 10 min in lysis buffer (1% Triton X-100 containing 50 mM Tris–HCl (pH 7.5), 150 mM NaCl, 1 mM EGTA, 1 mM EDTA, 10 mM NaF, 1 mM sodium orthovanadate and 5 mM sodium pyrophosphate and protease inhibitors (Roche)) and centrifuged for 10 min at 20000 g at 4°C.
# BMDC (5×10^6 cells) were stimulated as described above. Lysates were pre-cleared with protein G Sepharose beads (Roche) for 30 min at 4°C. Paxillin was immunoprecipitated with 2 μg of anti-paxillin (Millipore) or with anti-IgG antibodies (Santa Cruz Biotechnology) for 1 h at 4°C and then incubated with 15 μl protein G Sepharose beads for 1 h at 4°C. Beads were washed four times with lysis buffer and paxillin was eluted with NuPage sample buffer (Invitrogen). The immunoprecipitated proteins were separated by electrophoresis on a 10% (w/v) NuPage gel and transferred onto a nitrocellulose membrane. The membrane was probed with anti-phospho Ser250-paxilin (kind gift of Luc Sabourin, McMaster University, Canada) or anti-paxillin antibodies.
# [8] = biological target: T2, PLK1 (Mus musculus, UniProt Q07832); experiment: Desthiobiotin-ATP probe capture on streptavidin beads, Western blot; assay type: binding, C57BL/6 mice; settings: 10 μM inhibitor, DC lysate
# T2 construct: endogenous in cells; host or cells: mouse spleen-derived dendritic cells (SDC), lysate
# T2 sequence (Q07832 whole entry): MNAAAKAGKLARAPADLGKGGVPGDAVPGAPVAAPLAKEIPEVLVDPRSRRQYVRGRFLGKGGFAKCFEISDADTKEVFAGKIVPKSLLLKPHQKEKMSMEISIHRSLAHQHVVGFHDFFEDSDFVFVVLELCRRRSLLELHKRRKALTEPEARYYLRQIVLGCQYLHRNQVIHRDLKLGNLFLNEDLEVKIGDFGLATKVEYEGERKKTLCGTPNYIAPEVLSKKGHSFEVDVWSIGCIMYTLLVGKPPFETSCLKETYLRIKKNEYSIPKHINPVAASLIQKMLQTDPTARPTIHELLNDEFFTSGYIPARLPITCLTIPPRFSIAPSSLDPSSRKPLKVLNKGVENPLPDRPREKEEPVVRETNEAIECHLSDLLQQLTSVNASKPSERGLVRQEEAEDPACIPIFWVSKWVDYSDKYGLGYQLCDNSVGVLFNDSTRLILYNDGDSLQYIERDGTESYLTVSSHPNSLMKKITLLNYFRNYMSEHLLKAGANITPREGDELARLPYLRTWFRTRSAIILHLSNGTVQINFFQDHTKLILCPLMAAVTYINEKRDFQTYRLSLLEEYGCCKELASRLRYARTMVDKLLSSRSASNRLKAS
# Description: SDC were cultured for at least 14 days in RPMI (without arginine and lysine, custom-made by Biosera) containing 10% dialysed FCS (Hyclone) supplemented with 84 mg/l of L-arginine (Sigma) and 40 mg/l L-lysine (Sigma) for the ‘light’ medium or 84 mg/l of L-arginine ^13C6 or ^13C10 and 40 mg/l L-lysine ^13C6 (Cambridge Isotope Laboratory) for the ‘heavy’ medium. Equal numbers (2×10^7) of ‘light’ or ‘heavy’ labelled SDCs were incubated in RPMI containing 0.5% FCS for 3 h in 15 cm dishes. The cells were lysed in the lysis buffer provided in the kit (Pierce). […] Labelling with the desthiobiotin ATP probe, and precipitation with streptavidin beads were performed according to the manufacturer's instructions (Pierce kinase enrichment kit or ActivX™). Equal amount of streptavidin precipitates were separated by electrophoresis as described above and probed with antibodies against Rsk2, Lok (Bethyl), Slk (Bethyl), PLK1 (Calbiochem), p38, Erk2 and Mst1 (from Cell Signaling).
# [9] = test system: RSK; design: method as in PMID 22056746; settings: read-out: in vitro IC50 RSK; cited from earlier work
# [10] = increasing concentrations of inhibitor
SMILES,"production of TNFα, IL6 and IL10 [1]",Higher levels of BIX at which a few other kinases were affected [2],Block of TLR stimulated macropinocytosis [3],"morphological changes in resting DC (cell spreading, focal adhesion, loss of podosomes) [4]",capture of Erk1/2 on streptavidin beads [5],capture of p38 on streptavidin beads [6],"IL6 secretion [1, 10]","IL10 secretion [1, 10]","TNFα production [1, 10]","Erk1/2, p38 or JNK1/2 phosphorylation ([7]; LPS 50 ng/ml)",GSK3α/β phosphorylation ([7]; LPS 50 ng/ml),PKB phosphorylation at Ser473 and Thr308 ([7]; LPS 50 ng/ml),Phosphorylation of MSK1 and MK2 ([7]; LPS 50 ng/ml),phosphorylation of IκBα ([7]; LPS 50 ng/ml),"phosphorylation of paxillin on Ser250 ([7]; LPS, paxillin immunoprecipitated)",Recovery of PLK1 on streptavidin beads [8],IC50 [9]
Cc1ccc(-n2nc(C(C)(C)C)cc2NC(=O)Nc2ccc(OCCN3CCOCC3)c3ccccc23)cc1 [BIRB0796],blocked,–,–,–,–,–,–,–,–,–,–,–,–,–,–,–,–
"C[C@@H]1CCNC(=O)c2cc3ccc(C(=O)Nc4nc5ccccc5n4CCCN(C)C)cc3n21 [BIX, BIX02565]",–,~ 20 fold,~ 20%,not observed,"not Erk1/2 or p38, was blocked","not Erk1/2 or p38, was blocked",only partially blocked,only partially blocked,partially blocked,Neither inhibitor had any effect,blocked,increased,not affected,neither D1870 nor BIX affected,little effect,not affected,1 to 2 nM
O=C(NOCC1CC1)c1ccc(F)c(F)c1Nc1ccc(I)cc1Cl [PD184352],blocked,–,–,–,–,–,–,–,–,–,–,–,–,–,–,–,–
